Results as given in ChEMBL document CHEMBL1130557, “Synthesis and biological evaluation of 14-alkoxymorphinans. 14.1 14-ethoxy-5-methyl substituted indolomorphinans with opioid receptor selectivity” (Bioorg Med Chem Lett, 1997).

Columns and labels:
[1] = biological target: T1, Delta-type opioid receptor (Rattus norvegicus, UniProt P33533); experiment: Compound was evaluated for the binding affinity towards Opioid receptor delta 1 in rat brain homogenates using [3H]DIDI as radioligand; format: tissue-based
T1 sequence (P33533 whole entry): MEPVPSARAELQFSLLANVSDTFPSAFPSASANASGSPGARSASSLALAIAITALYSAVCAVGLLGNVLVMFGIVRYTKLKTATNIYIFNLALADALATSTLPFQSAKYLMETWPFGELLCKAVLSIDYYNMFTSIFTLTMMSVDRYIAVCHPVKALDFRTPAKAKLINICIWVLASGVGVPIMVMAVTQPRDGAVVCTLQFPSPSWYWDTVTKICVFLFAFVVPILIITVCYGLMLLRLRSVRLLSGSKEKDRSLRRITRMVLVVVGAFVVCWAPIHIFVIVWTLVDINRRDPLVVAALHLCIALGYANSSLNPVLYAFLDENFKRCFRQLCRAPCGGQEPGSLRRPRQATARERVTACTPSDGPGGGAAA

[2] = biological target: T1, Delta-type opioid receptor; experiment: Compound was evaluated for the binding affinity towards Opioid receptor delta 1 in rat brain homogenates using [3H]naltrindole as radioligand; format: tissue-based
Cavia porcellus [3] = species on record: Cavia porcellus; experiment: Compound was evaluated for the percent inhibition of electrically evoked twitch height at 10 uM concentration in guinea pig ileum (GPI); format: functional
Mus musculus = species on record: Mus musculus; experiment: Compound was evaluated for the percent inhibition of electrically evoked twitch height at 10 uM concentration in mouse vas deferens (MVD); format: functional
Mu-type opioid receptor = Mu-type opioid receptor (Rattus norvegicus, UniProt P33535); experiment: Compound was evaluated for the binding affinity towards mu opioid receptor in rat brain homogenates using [3H]DAMGO as radioligand; format: tissue-based
Sequence of Mu-type opioid receptor (P33535 whole entry): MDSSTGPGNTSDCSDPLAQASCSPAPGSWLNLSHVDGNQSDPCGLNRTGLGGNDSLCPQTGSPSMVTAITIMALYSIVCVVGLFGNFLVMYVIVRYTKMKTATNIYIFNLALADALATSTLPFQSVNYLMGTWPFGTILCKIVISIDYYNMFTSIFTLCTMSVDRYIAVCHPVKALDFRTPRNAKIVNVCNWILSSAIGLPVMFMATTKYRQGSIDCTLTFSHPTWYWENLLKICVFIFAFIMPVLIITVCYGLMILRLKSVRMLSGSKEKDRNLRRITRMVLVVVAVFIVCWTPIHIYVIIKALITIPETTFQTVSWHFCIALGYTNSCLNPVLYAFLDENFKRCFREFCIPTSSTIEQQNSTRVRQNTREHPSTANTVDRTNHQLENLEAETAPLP

[4] = biological target: Kappa-type opioid receptor (Rattus norvegicus, UniProt P34975); experiment: Compound was evaluated for the binding affinity towards Opioid receptor kappa 1 in rat brain homogenates using [3H]U-69593 as radioligand; format: tissue-based
Sequence of Kappa-type opioid receptor (P34975 whole entry): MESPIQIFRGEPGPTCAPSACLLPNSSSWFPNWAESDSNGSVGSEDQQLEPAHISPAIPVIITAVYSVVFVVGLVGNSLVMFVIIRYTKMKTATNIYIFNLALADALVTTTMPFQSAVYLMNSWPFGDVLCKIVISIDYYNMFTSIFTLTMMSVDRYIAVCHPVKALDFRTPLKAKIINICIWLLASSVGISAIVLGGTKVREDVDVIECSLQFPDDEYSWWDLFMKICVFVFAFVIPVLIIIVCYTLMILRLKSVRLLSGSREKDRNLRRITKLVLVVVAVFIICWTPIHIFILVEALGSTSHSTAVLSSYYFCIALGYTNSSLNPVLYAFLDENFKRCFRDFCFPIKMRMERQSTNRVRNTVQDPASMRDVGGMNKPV

[5] = biological target: Kappa-type opioid receptor (Mus musculus) (UniProt P33534)
Sequence of Kappa-type opioid receptor (Mus musculus) (P33534 whole entry): as the sequence (P34975 whole entry) above, with E11D, A17S, P51S, V308A counted along it
Description: Tested for antagonist activity against Opioid receptor kappa 1 in mouse vas deferens preparation by using C1977 as antagonist

Cavia porcellus [6] = species on record: Cavia porcellus; experiment: Compound was evaluated for the percent inhibition of twitch height at 10 uM concentration in guinea pig ileum assay; format: functional

SMILES | Ki [1] | Ki [2] | inhibition at 10 µM (Cavia porcellus [3]) | inhibition at 10 µM (Mus musculus) | Ki (Mu-type opioid receptor) | Ki [4] | Ke [5] | inhibition at 10 µM (Cavia porcellus [6])
Oc1ccc2c3c1O[C@H]1c4[nH]c5ccccc5c4C[C@@]4(O)[C@@H](C2)N(CC2CC2)CC[C@]314 [NALTRINDOLE] | 0.09 nM | 0.33 nM | – | – | – | – | – | –
CCO[C@@]12Cc3c([nH]c4ccccc34)[C@]3(C)Oc4c(O)ccc5c4[C@@]31CCN(CC1CC1)C2C5 | 14 nM | 0.78 nM | 32% | 23% | 38.7 nM | 59.2 nM | 529 nM | –
CCO[C@@]12Cc3c([nH]c4ccccc34)[C@]3(C)Oc4c(O)ccc5c4[C@@]31CCN(C)[C@@H]2C5 | 8.81 nM | 5.75 nM | – | – | 715 nM | 286 nM | – | 21%
C=CCN1CC[C@]23c4c5ccc(O)c4O[C@@]2(C)c2[nH]c4ccccc4c2C[C@@]3(OCC)[C@H]1C5 | 29.9 nM | 10.8 nM | – | – | 667 nM | 765 nM | – | –
